Earlier results on one substance are cited in patent publication US20150177227A1, “CELLULAR AND ANIMAL MODELS FOR SCREENING THERAPEUTIC AGENTS FOR THE TREATMENT OF ALZHEIMER'S DISEASE” (priority 2012, published 2015).

One data set concerns plaque. The settings on record: in vivo.

Take “solanezumab: humanized antibody from Eli Lilly & Co. shown to clear plaque”: the plaque clearance entry with plaque is recorded as “clear plaque”. The “benefit trend in phase II clinical trials” value in the data set on Alzheimer's disease was “neither antibody showed any trend”.
